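Protocol summary: plate cells (96-well), add compound at 5 concentrations, incubate 48 h, interpolate endpoints linearly. TGI denotes the concentration required for complete inhibition of growth.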 A value given as a limit tells only on which side of the number the result lay.

Some test systems named below: DU-145 prostate; HL-60(TB) leukemia; MDA-MB-435; MOLT-4 leukemia; NCI-H226 lung; NCI-H23 lung; NCI/ADR-RES ovarian; OVCAR-5 ovarian; PC-3 prostate; RPMI-8226 leukemia; SF-539 CNS.
Assay in all cases: NCI-60 cell line screen, 48 h

Consider `CCOC(=O)CCC(NC(=O)Cc1ccc(Oc2nc3ccccc3nc2-c2cccs2)cc1)C(=O)OCC` (stereo unspecified), for which the TGI in the test with DU-145 prostate was greater than 100 µM; in the test on HL-60(TB) leukemia, greater than 100 µM; with MDA-MB-435 it was greater than 100 µM; with MOLT-4 leukemia, greater than 100 µM; with NCI-H226 lung, 86.2 µM; in the test on NCI-H23 lung it was greater than 100 µM. Further, the TGI was greater than 100 µM in the test with NCI/ADR-RES ovarian; greater than 100 µM with OVCAR-5 ovarian; greater than 100 µM with PC-3 prostate; greater than 100 µM in the test with RPMI-8226 leukemia; 26.3 µM with SF-539 CNS.

Take `NC1=NNC2(C(N)=N1)c1ccccc1-c1ccccc12`: the TGI in the test on DU-145 prostate, with HL-60(TB) leukemia, in the test on MDA-MB-435, with MOLT-4 leukemia, in the test with NCI-H226 lung and in the test with NCI-H23 lung was greater than 10 µM each time. For the same compound, the TGI in the test with NCI/ADR-RES ovarian, with PC-3 prostate, in the test on RPMI-8226 leukemia and in the test with SF-539 CNS was greater than 10 µM in each case.

Turning to `COc1cc2c(c3c1c(=O)c1ccccc1n3C)C=CC1(CCCCC1)O2`, the TGI in the test with DU-145 prostate is greater than 10 µM; in the test with HL-60(TB) leukemia, greater than 10 µM; with MDA-MB-435 it was 6.42 µM; in the test on MOLT-4 leukemia, greater than 10 µM; in the test on NCI-H226 lung it was greater than 10 µM; with NCI-H23 lung it was greater than 10 µM. Besides, the TGI with NCI/ADR-RES ovarian was greater than 10 µM; in the test with OVCAR-5 ovarian, greater than 10 µM; in the test on PC-3 prostate it was greater than 10 µM; with RPMI-8226 leukemia it was greater than 5.04 µM; in the test on SF-539 CNS, greater than 7.22 µM.

`O=[N+]([O-])c1cc(Cl)cc2cc(Cl)cnc12`: the TGI in the test with DU-145 prostate, in the test with HL-60(TB) leukemia, in the test with MDA-MB-435, with MOLT-4 leukemia, in the test with NCI-H226 lung and in the test on NCI-H23 lung was greater than 100 µM in each case. In addition, the TGI in the test with NCI/ADR-RES ovarian, with OVCAR-5 ovarian, in the test with PC-3 prostate, in the test on RPMI-8226 leukemia and in the test with SF-539 CNS was greater than 100 µM throughout.

Take `O=c1oc2ccc3ccccc3c2cc1-c1nc2ccccc2o1`: the TGI in the test with DU-145 prostate is greater than 52.3 µM; with HL-60(TB) leukemia it was greater than 100 µM; in the test on MDA-MB-435 it was greater than 60.6 µM; in the test with MOLT-4 leukemia, greater than 79 µM; in the test on NCI-H226 lung, greater than 63.6 µM; in the test with NCI-H23 lung, greater than 63.3 µM. Also, the TGI was 51.7 µM with NCI/ADR-RES ovarian; greater than 100 µM in the test on OVCAR-5 ovarian; greater than 74.9 µM with PC-3 prostate; greater than 63.4 µM in the test on RPMI-8226 leukemia; 29.3 µM in the test with SF-539 CNS.

With `CC(CO)C1=CC(C#CCOCc2ccccc2)N(C(=O)Oc2ccccc2)c2ccccc21` (stereo unspecified), the TGI with DU-145 prostate was greater than 100 µM; in the test on HL-60(TB) leukemia it was greater than 100 µM; with MDA-MB-435, 47.9 µM; in the test with MOLT-4 leukemia, greater than 100 µM; in the test with NCI-H226 lung it was greater than 100 µM; in the test on NCI-H23 lung it was 39.8 µM. For the same compound, the TGI with NCI/ADR-RES ovarian is 63.3 µM; with OVCAR-5 ovarian it was greater than 100 µM; in the test on PC-3 prostate, greater than 100 µM; in the test on RPMI-8226 leukemia, greater than 100 µM; with SF-539 CNS it was greater than 100 µM.

Consider `CCN(CC)CCCNc1nc2ccccc2c2[nH]c3ccc(OC)cc3c12`, for which the TGI with DU-145 prostate was determined as 8.44 µM; in the test with HL-60(TB) leukemia, 3.02 µM; in the test with MDA-MB-435, 2.99 µM; in the test on MOLT-4 leukemia it was 1.69 µM; in the test on NCI-H226 lung, 9.83 µM; with NCI-H23 lung, 2.93 µM. Further, the TGI was determined as 2.92 µM in the test on NCI/ADR-RES ovarian; 3.18 µM in the test with OVCAR-5 ovarian; 2.73 µM in the test with PC-3 prostate; 9.41 µM in the test with RPMI-8226 leukemia; 3.67 µM in the test on SF-539 CNS.

In the case of `CCOC(=O)c1c(-c2ccc(OC)cc2)c(C#N)c(=S)n(C2OC(CO)C(O)C(O)C2O)c1-c1ccccc1` (stereo unspecified), the TGI with DU-145 prostate was greater than 100 µM; with HL-60(TB) leukemia, greater than 100 µM; with MDA-MB-435, 95.9 µM; with MOLT-4 leukemia, 96.5 µM; with NCI-H23 lung, greater than 100 µM; with NCI/ADR-RES ovarian, greater than 100 µM. Moreover, the TGI in the test on OVCAR-5 ovarian, in the test with PC-3 prostate, in the test with RPMI-8226 leukemia and with SF-539 CNS was greater than 100 µM in each case.

As to `O=c1[nH]nc(Cc2ccc(Cl)cc2)n1/N=C\c1ccc(/C=N/n2c(Cc3ccc(Cl)cc3)n[nH]c2=O)cc1`, the TGI with DU-145 prostate, in the test on HL-60(TB) leukemia, with MDA-MB-435, with MOLT-4 leukemia, in the test on NCI-H226 lung and with NCI-H23 lung was greater than 100 µM throughout. Moreover, the TGI in the test on NCI/ADR-RES ovarian, in the test with OVCAR-5 ovarian, in the test with PC-3 prostate and with RPMI-8226 leukemia was greater than 100 µM throughout.

Take `N#CCCN(CCC#N)c1ccc(/C=C2\N=C(c3ccccc3)N(c3ccccn3)C2=O)cc1`: the TGI in the test with DU-145 prostate, in the test on HL-60(TB) leukemia, in the test on MDA-MB-435, with MOLT-4 leukemia, with NCI-H226 lung and in the test on NCI/ADR-RES ovarian was greater than 100 µM each time. Further, the TGI in the test with OVCAR-5 ovarian, in the test on PC-3 prostate, in the test with RPMI-8226 leukemia and in the test on SF-539 CNS was greater than 100 µM in each case.

In the case of `CC(=O)N[C@H]1CCCC[C@@H]1OC(C)=O`, the TGI in the test with DU-145 prostate, in the test on HL-60(TB) leukemia, in the test with MDA-MB-435, with MOLT-4 leukemia, in the test on NCI-H226 lung and in the test with NCI-H23 lung was greater than 100 µM throughout. In addition, the TGI in the test on NCI/ADR-RES ovarian, in the test on OVCAR-5 ovarian, with PC-3 prostate and in the test on RPMI-8226 leukemia was greater than 100 µM throughout.

As for `c1ccc2c(c1)Nc1nc3nonc3nc1N2`, the TGI in the test on DU-145 prostate, with HL-60(TB) leukemia, with MDA-MB-435, with MOLT-4 leukemia, with NCI-H226 lung and with NCI-H23 lung was greater than 100 µM throughout. The TGI with NCI/ADR-RES ovarian, in the test on OVCAR-5 ovarian, in the test on PC-3 prostate and in the test on RPMI-8226 leukemia was greater than 100 µM each time.

`CC(=O)OCC1OC(n2c(N)c(C#N)c(-c3ccc(C)cc3)c(C#N)c2=S)C(OC(C)=O)C(OC(C)=O)C1OC(C)=O` (stereo unspecified): the TGI in the test with DU-145 prostate is 28.7 µM; with HL-60(TB) leukemia, greater than 100 µM; with MDA-MB-435 it was 79.3 µM; in the test with NCI-H226 lung, 20.1 µM; with NCI-H23 lung, 51.9 µM; in the test on NCI/ADR-RES ovarian it was 91.9 µM. The TGI is greater than 100 µM in the test with OVCAR-5 ovarian, greater than 100 µM with PC-3 prostate, 80 µM in the test on RPMI-8226 leukemia and 19.2 µM with SF-539 CNS.

The record behind these values is PubChem BioAssay (NCI).
